Results: publication PMC9683399 (Journal of medicinal chemistry, 2022)

Biological target: BRD4 D2 (Homo sapiens, UniProt O60885)

Cc1sc2c(c1C)C(c1ccc(Cl)cc1)=N[C@@H](CC(=O)OC(C)(C)C)c1nnc(C)n1-2 [(+)-JQ1]
binding to BRD4 D2 by ITC: potent binding
